Data published in the NIST ThermoML archive (doi:10.1016/j.tca.2012.01.013).
± gives the expanded uncertainty stated by the source.

Tests used:
[1] = xn = mol fraction of the nth substance listed; conditions: 101 kPa, Liquid, Vibrating tube method
[2] = refractive index (Na D-line) (dimensionless); xn = mol fraction of the nth substance listed; conditions: 101 kPa, Liquid, Standard Abbe refractometry

COC(=O)CCCCC(=O)OC [dimethyl 1,6-hexanedioate] + CCC(C)=O
Conditions	mass density, [1] [kg/m3]	refractive index, [2]
288.15 K, x1 = 0.1002	855.132 ± 0.16	1.3909 ± 0.00036
288.15 K, x1 = 0.2002	893.327 ± 0.15	1.39827 ± 0.00037
288.15 K, x1 = 0.3002	926.063 ± 0.15	1.40453 ± 0.00037
288.15 K, x1 = 0.4004	954.409 ± 0.15	1.40995 ± 0.00037
288.15 K, x1 = 0.5001	979.016 ± 0.16	1.41452 ± 0.00038
288.15 K, x1 = 0.5999	1000.72 ± 0.17	1.41853 ± 0.00038
288.15 K, x1 = 0.6998	1020.03 ± 0.2	1.42204 ± 0.00039
288.15 K, x1 = 0.7994	1037.28 ± 0.23	1.42515 ± 0.00039
288.15 K, x1 = 0.8997	1052.86 ± 0.26	1.42797 ± 0.0004
288.15 K, x1 = 1	1066.79 ± 0.29	1.4305 ± 0.0004
293.15 K, x1 = 0.1002	849.982 ± 0.17	1.38847 ± 0.00037
293.15 K, x1 = 0.2002	888.227 ± 0.16	1.39586 ± 0.00037
293.15 K, x1 = 0.3002	921.006 ± 0.16	1.40221 ± 0.00037
293.15 K, x1 = 0.4004	949.39 ± 0.16	1.40768 ± 0.00037
293.15 K, x1 = 0.5001	974.03 ± 0.17	1.41229 ± 0.00038
293.15 K, x1 = 0.5999	995.763 ± 0.17	1.41634 ± 0.00038
293.15 K, x1 = 0.6998	1015.1 ± 0.2	1.41989 ± 0.00039
293.15 K, x1 = 0.7994	1032.37 ± 0.22	1.42303 ± 0.00039
293.15 K, x1 = 0.8997	1047.98 ± 0.25	1.42587 ± 0.0004
293.15 K, x1 = 1	1061.93 ± 0.28	1.42842 ± 0.0004
298.15 K, x1 = 0.1002	844.812 ± 0.17	1.38601 ± 0.00037
298.15 K, x1 = 0.2002	883.111 ± 0.16	1.39346 ± 0.00037
298.15 K, x1 = 0.3002	915.937 ± 0.16	1.39988 ± 0.00037
298.15 K, x1 = 0.4004	944.361 ± 0.16	1.4054 ± 0.00037
298.15 K, x1 = 0.5001	969.035 ± 0.17	1.41005 ± 0.00038
298.15 K, x1 = 0.5999	990.798 ± 0.17	1.41416 ± 0.00038
298.15 K, x1 = 0.6998	1010.17 ± 0.19	1.41774 ± 0.00039
298.15 K, x1 = 0.7994	1027.45 ± 0.22	1.42091 ± 0.00039
298.15 K, x1 = 0.8997	1043.08 ± 0.25	1.42378 ± 0.0004
298.15 K, x1 = 1	1057.06 ± 0.28	1.42636 ± 0.0004
303.15 K, x1 = 0.1002	839.62 ± 0.17	1.38348 ± 0.00037
303.15 K, x1 = 0.2002	877.976 ± 0.16	1.39104 ± 0.00037
303.15 K, x1 = 0.3002	910.852 ± 0.16	1.39751 ± 0.00037
303.15 K, x1 = 0.4004	939.32 ± 0.16	1.4031 ± 0.00037
303.15 K, x1 = 0.5001	964.032 ± 0.17	1.4078 ± 0.00038
303.15 K, x1 = 0.5999	985.828 ± 0.17	1.41196 ± 0.00038
303.15 K, x1 = 0.6998	1005.23 ± 0.19	1.41557 ± 0.00039
303.15 K, x1 = 0.7994	1022.54 ± 0.22	1.41878 ± 0.00039
303.15 K, x1 = 0.8997	1038.19 ± 0.25	1.42168 ± 0.0004
303.15 K, x1 = 1	1052.18 ± 0.28	1.42429 ± 0.0004
308.15 K, x1 = 0.1002	834.401 ± 0.17	1.38097 ± 0.00037
308.15 K, x1 = 0.2002	872.82 ± 0.16	1.38859 ± 0.00037
308.15 K, x1 = 0.3002	905.75 ± 0.16	1.39515 ± 0.00037
308.15 K, x1 = 0.4004	934.263 ± 0.16	1.40079 ± 0.00037
308.15 K, x1 = 0.5001	959.015 ± 0.17	1.40555 ± 0.00038
308.15 K, x1 = 0.5999	980.845 ± 0.17	1.40974 ± 0.00038
308.15 K, x1 = 0.6998	1000.27 ± 0.19	1.41341 ± 0.00039
308.15 K, x1 = 0.7994	1017.61 ± 0.21	1.41667 ± 0.00039
308.15 K, x1 = 0.8997	1033.29 ± 0.24	1.41961 ± 0.0004
308.15 K, x1 = 1	1047.31 ± 0.27	1.42222 ± 0.0004
313.15 K, x1 = 0.1002	829.151 ± 0.17	1.37832 ± 0.00037
313.15 K, x1 = 0.2002	867.64 ± 0.17	1.38611 ± 0.00037
313.15 K, x1 = 0.3002	900.629 ± 0.16	1.39277 ± 0.00037
313.15 K, x1 = 0.4004	929.193 ± 0.16	1.39848 ± 0.00037
313.15 K, x1 = 0.5001	953.987 ± 0.17	1.4033 ± 0.00038
313.15 K, x1 = 0.5999	975.853 ± 0.18	1.40756 ± 0.00038
313.15 K, x1 = 0.6998	995.312 ± 0.19	1.41126 ± 0.00039
313.15 K, x1 = 0.7994	1012.68 ± 0.21	1.41455 ± 0.00039
313.15 K, x1 = 0.8997	1028.38 ± 0.24	1.41751 ± 0.0004
313.15 K, x1 = 1	1042.43 ± 0.27	1.42017 ± 0.0004
318.15 K, x1 = 0.1002	823.875 ± 0.17	1.37568 ± 0.00037
318.15 K, x1 = 0.2002	862.438 ± 0.17	1.38355 ± 0.00037
318.15 K, x1 = 0.3002	895.489 ± 0.16	1.39031 ± 0.00037
318.15 K, x1 = 0.4004	924.104 ± 0.16	1.39611 ± 0.00037
318.15 K, x1 = 0.5001	948.941 ± 0.17	1.401 ± 0.00038
318.15 K, x1 = 0.5999	970.845 ± 0.18	1.40532 ± 0.00038
318.15 K, x1 = 0.6998	990.336 ± 0.19	1.40909 ± 0.00039
318.15 K, x1 = 0.7994	1007.74 ± 0.21	1.41243 ± 0.00039
318.15 K, x1 = 0.8997	1023.47 ± 0.24	1.41544 ± 0.0004
318.15 K, x1 = 1	1037.54 ± 0.27	1.41819 ± 0.0004
323.15 K, x1 = 0.1002	818.564 ± 0.19	1.37305 ± 0.00037
323.15 K, x1 = 0.2002	857.21 ± 0.18	1.38103 ± 0.00037
323.15 K, x1 = 0.3002	890.33 ± 0.17	1.38784 ± 0.00037
323.15 K, x1 = 0.4004	919.003 ± 0.17	1.39374 ± 0.00038
323.15 K, x1 = 0.5001	943.887 ± 0.17	1.39869 ± 0.00038
323.15 K, x1 = 0.5999	965.832 ± 0.18	1.40307 ± 0.00038
323.15 K, x1 = 0.6998	985.36 ± 0.19	1.40691 ± 0.00039
323.15 K, x1 = 0.7994	1002.79 ± 0.21	1.4103 ± 0.00039
323.15 K, x1 = 0.8997	1018.55 ± 0.23	1.41336 ± 0.0004
323.15 K, x1 = 1	1032.64 ± 0.26	1.41614 ± 0.0004
